# Values quoted from earlier work in PMC9516332 (Frontiers in Oncology, 2022).
# Where two headings read alike, the source gives them in different places.
# Tests used:
# Conditions in all cases: cited from earlier work
# [1] = biological target: panel of 255 wild-type kinases (Homo sapiens, UniProt Q9H2G2)
# [2] = biological target: panel of 255 wild-type kinases (Homo sapiens, UniProt P23458)
# [3] = biological target: T1, panel of 255 wild-type kinases (Homo sapiens, UniProt Q9UL54)
# T1 sequence (Q9UL54 1-1235): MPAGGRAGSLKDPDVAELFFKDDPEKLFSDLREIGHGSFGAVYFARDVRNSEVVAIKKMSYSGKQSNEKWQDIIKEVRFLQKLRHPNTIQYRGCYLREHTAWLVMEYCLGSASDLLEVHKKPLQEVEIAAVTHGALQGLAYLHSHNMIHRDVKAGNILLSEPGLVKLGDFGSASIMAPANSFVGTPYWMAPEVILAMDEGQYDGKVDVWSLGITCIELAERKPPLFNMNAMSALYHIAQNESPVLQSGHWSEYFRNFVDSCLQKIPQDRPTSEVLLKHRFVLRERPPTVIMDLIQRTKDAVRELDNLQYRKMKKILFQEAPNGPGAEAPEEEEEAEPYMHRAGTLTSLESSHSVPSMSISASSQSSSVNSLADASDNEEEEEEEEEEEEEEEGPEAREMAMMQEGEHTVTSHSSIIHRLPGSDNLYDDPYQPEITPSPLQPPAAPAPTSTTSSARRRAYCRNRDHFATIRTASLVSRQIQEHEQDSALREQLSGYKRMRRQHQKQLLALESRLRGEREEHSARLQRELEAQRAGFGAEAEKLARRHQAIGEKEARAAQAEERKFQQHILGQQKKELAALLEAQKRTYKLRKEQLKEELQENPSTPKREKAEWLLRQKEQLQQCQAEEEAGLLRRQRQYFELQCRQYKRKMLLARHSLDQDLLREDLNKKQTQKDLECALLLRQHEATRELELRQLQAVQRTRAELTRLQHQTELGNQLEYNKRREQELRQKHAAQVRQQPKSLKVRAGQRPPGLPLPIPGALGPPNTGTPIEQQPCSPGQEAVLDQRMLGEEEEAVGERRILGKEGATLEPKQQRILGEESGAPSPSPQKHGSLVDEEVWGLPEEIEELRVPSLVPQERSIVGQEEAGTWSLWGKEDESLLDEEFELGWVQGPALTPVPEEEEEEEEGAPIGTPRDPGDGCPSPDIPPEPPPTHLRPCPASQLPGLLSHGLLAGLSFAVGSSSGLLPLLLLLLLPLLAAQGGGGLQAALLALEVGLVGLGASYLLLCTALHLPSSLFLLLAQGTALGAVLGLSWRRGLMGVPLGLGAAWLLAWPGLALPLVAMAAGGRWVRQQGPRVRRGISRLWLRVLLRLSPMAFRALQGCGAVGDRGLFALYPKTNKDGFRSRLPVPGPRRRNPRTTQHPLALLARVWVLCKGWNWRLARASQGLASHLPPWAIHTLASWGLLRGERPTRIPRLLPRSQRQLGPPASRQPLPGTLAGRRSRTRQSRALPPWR
# [4] = biological target: panel of 255 wild-type kinases (Homo sapiens, UniProt Q16620)
# [5] = biological target: panel of 255 wild-type kinases (Homo sapiens, UniProt Q9Y3S1)
# [6] = biological target: panel of 255 wild-type kinases (Homo sapiens, UniProt Q86Z02)
# [7] = biological target: panel of 255 wild-type kinases (Homo sapiens, UniProt Q05655)
# [8] = biological target: panel of 255 wild-type kinases (Homo sapiens, UniProt Q9Y5S2)
# [9] = biological target: panel of 255 wild-type kinases (Homo sapiens, UniProt Q15759)
# [10] = biological target: panel of 255 wild-type kinases (Homo sapiens, UniProt P29376)
# [11] = biological target: panel of 255 wild-type kinases (Homo sapiens, UniProt P21802)
# [12] = biological target: panel of 255 wild-type kinases (Homo sapiens, UniProt Q8N568)
compound,measurement,setting,value
COc1cc(N2CCC(N3CCN(C)CC3)CC2)ccc1Nc1ncc(Cl)c(Nc2ccccc2P(C)(C)=O)n1 [brigatinib],"%-inhibition at 1 µmol/L, SLK",[1],95%
same,"%-inhibition at 1 µmol/L, JAK1",[2],31%
same,"%-inhibition at 1 µmol/L, TAOK2",[3],16%
same,"%-inhibition at 1 µmol/L, TRKB",[4],27%
same,"%-inhibition at 1 µmol/L, WNK2",[5],0.119%
same,"%-inhibition at 1 µmol/L, HIPK1",[6],11%
same,"%-inhibition at 1 µmol/L, PKCδ",[7],34%
same,"%-inhibition, MRCKβ",[8],38%
same,"%-inhibition, p38β",[9],3.38%
same,"%-inhibition at 1 µmol/L, LTK",[10],100%
same,"%-inhibition at 1 µmol/L, FGFR2",[11],97%
same,"%-inhibition at 1 µmol/L, DCAMKL2",[12],52%
C=CC(=O)N1CCC[C@@H](n2nc(-c3ccc(Oc4ccccc4)cc3)c3c(N)ncnc32)C1 [ibrutinib],"%-inhibition at 1 µmol/L, SLK","[1]; kinase SLK, 1 µmol/L single concentration, ref DOI: 10.1158/1535-7163.MCT-18-0877",12%
same,"%-inhibition at 1 µmol/L, JAK1","[2]; kinase JAK1, 1 µmol/L single concentration, ref DOI: 10.1158/1535-7163.MCT-18-0877",-10%
same,"%-inhibition at 1 µmol/L, TAOK2","[3]; kinase TAOK2, 1 µmol/L single concentration, ref DOI: 10.1158/1535-7163.MCT-18-0877",5%
same,"%-inhibition at 1 µmol/L, TRKB","[4]; kinase TRKB, 1 µmol/L single concentration, ref DOI: 10.1158/1535-7163.MCT-18-0877",26%
same,"%-inhibition at 1 µmol/L, WNK2","[5]; kinase WNK2, 1 µmol/L single concentration, ref DOI: 10.1158/1535-7163.MCT-18-0877",5.67%
same,"%-inhibition at 1 µmol/L, HIPK1","[6]; kinase HIPK1, 1 µmol/L single concentration, ref DOI: 10.1158/1535-7163.MCT-18-0877",4.26%
same,"%-inhibition at 1 µmol/L, PKCδ","[7]; kinase PKCδ, 1 µmol/L single concentration, ref DOI: 10.1158/1535-7163.MCT-18-0877",0.525%
same,"%-inhibition, MRCKβ","[8]; MRCKβ, 1 µmol/L single concentration, ref DOI: 10.1158/1535-7163.MCT-18-0877",-7.55%
same,"%-inhibition, p38β","[9]; p38β, 1 µmol/L single concentration, ref DOI: 10.1158/1535-7163.MCT-18-0877",9%
same,"%-inhibition at 1 µmol/L, LTK","[10]; kinase LTK, 1 µmol/L single concentration, ref DOI: 10.1158/1535-7163.MCT-18-0877",2.76%
same,"%-inhibition at 1 µmol/L, FGFR2","[11]; kinase FGFR2, 1 µmol/L single concentration, ref DOI: 10.1158/1535-7163.MCT-18-0877",81%
same,"%-inhibition at 1 µmol/L, DCAMKL2","[12]; kinase DCAMKL2, 1 µmol/L single concentration, ref DOI: 10.1158/1535-7163.MCT-18-0877",-9%
C[C@@H](Oc1cc(-c2cnn(C3CCNCC3)c2)cnc1N)c1c(Cl)ccc(F)c1Cl [crizotinib],"%-inhibition at 1 µmol/L, SLK","[1]; kinase SLK, 1 µmol/L single concentration, ref DOI: 10.1371/journal.pone.0092146",100%
same,"%-inhibition at 1 µmol/L, JAK1","[2]; kinase JAK1, 1 µmol/L single concentration, ref DOI: 10.1371/journal.pone.0092146",47%
same,"%-inhibition at 1 µmol/L, TAOK2","[3]; kinase TAOK2, 1 µmol/L single concentration, ref DOI: 10.1371/journal.pone.0092146",33%
same,"%-inhibition at 1 µmol/L, TRKB","[4]; kinase TRKB, 1 µmol/L single concentration, ref DOI: 10.1371/journal.pone.0092146",102%
same,"%-inhibition at 1 µmol/L, WNK2","[5]; kinase WNK2, 1 µmol/L single concentration, ref DOI: 10.1371/journal.pone.0092146",-4%
same,"%-inhibition at 1 µmol/L, HIPK1","[6]; kinase HIPK1, 1 µmol/L single concentration, ref DOI: 10.1371/journal.pone.0092146",-7%
same,"%-inhibition at 1 µmol/L, PKCδ","[7]; kinase PKCδ, 1 µmol/L single concentration, ref DOI: 10.1371/journal.pone.0092146",-1.14%
same,"%-inhibition, MRCKβ","[8]; MRCKβ, 1 µmol/L single concentration, ref DOI: 10.1371/journal.pone.0092146",-2%
same,"%-inhibition, p38β","[9]; p38β, 1 µmol/L single concentration, ref DOI: 10.1371/journal.pone.0092146",0.299%
same,"%-inhibition at 1 µmol/L, LTK","[10]; kinase LTK, 1 µmol/L single concentration, ref DOI: 10.1371/journal.pone.0092146",102%
same,"%-inhibition at 1 µmol/L, FGFR2","[11]; kinase FGFR2, 1 µmol/L single concentration, ref DOI: 10.1371/journal.pone.0092146",27%
same,"%-inhibition at 1 µmol/L, DCAMKL2","[12]; kinase DCAMKL2, 1 µmol/L single concentration, ref DOI: 10.1371/journal.pone.0092146",49%
